From patent US7521540B2, “CYR61 compositions and methods” (Munin Corporation, priority 1996, dated 2009)

Legend:
platelets = assay: Platelet adhesion assay; type: cell-based, human
Experimental: Microtiter wells were coated with purified recombinant Fisp12/mCTGF or Cyr61, and the adhesion of isolated platelets to these proteins was detected with ^125I-mAb15, an anti-β3 monoclonal antibody (Frelinger et al., J. Biol. Chem 265:6346-6352 [1990]). Platelets were obtained from venous blood drawn from healthy donors and collected into acid-citrate-dextrose (ACD). Washed platelets were prepared by diffenential centrifugation as described (Kinlough-Rathbone et al. Thromb. Haemostas 2:291-308 [1997]), and finally resuspended in HEPES-Tyrode's buffer (5 mM HEPES, pH 7.35, 1 mM MgCl2, 1 mM CaCl2, 135 mM NaCl, 2.7 mM KCl, 11.9 mM NaHCO3, 1 mg/ml dextrose and 3.5 mg/ml BSA). The platelet concentration was adjusted to […].
Microtiter wells (Immulon 2 removawell strips, Dynex Technologies, Inc.) were coated with Cyr61, Fisp12/mCTGF, or fibrinogen (25 μg/ml, 50 μl/well) incubated overnight at 22° C., and then blocked with 3% BSA at 37° C. for 2 hours. Washed platelets were added to the wells (100 μl/well) in the presence and absence of platelet agonists and incubated at 37° C. for 30 minutes. The wells were washed with HEPES-Tyrode's buffer and adherent platelets were detected with ^125I-mAb15, an anti-β3 monoclonal antibody. Exposure to the labeled antibody ([…], 50 μl/well) proceeded for 1 hour at 22° C. After extensive washing with HEPES-Tyrode's buffer, bound radioactivity was determined by γ-counting. In inhibition studies, washed platelets were pre-incubated with blocking peptides or antibodies at 37° C. for 15 minutes prior to addition to microtiter wells.
The anti-β3 antibody was radioiodinated with carrier-free Na^125I (Amersham Corp.) using the IODO-BEADS iodination reagent (Pierce) to a specific activity of approximately 2 μCi/μg. […] As controls, BSA- and fibrinogen-coated (KabiVitrum Inc.) wells were also used. Initially, the adhesion of unactivated versus activated platelets to immobilized Fisp12/mCTGF and Cyr61 was compared. To ensure that plateltes were not activated during the washing procedures, PGl2 (100 nM), which inhibits activation by raising platelet cAMP levels, was added to the platelet suspensions. […]

HUVE cells = assay: Fisp12 cell attachment assay, HUVE cells; type: cell-based, human; conditions: EDTA added to culture medium; cell type not stated
Experimental: The capacity of Fisp12 to affect cell adhesion was also investigated. Fisp12 cell attachment assays were performed essentially as described (Oliver et al., [1989]). 96-well immunological plates were coated for 16 hours at 4° C. with 20 μg/ml Cyr61, Fisp12 or fibronectim (Gibco BRL) in PBS containing 0.1 mg/ml BSA and blocked with 10 mg/ml BSA for 1 hour at room temperature. HUVE cells were plated at 10^4 cells/well in F12K media with 10% FBS (Hyclone Laboratories, Inc., Logan, Utah); NIH 3T3 fibroblasts were plated at 3×10^4 cells/well and Mv1Lu cells were plated at 5×10^4 cells/well in minimal essential medium (MEM) with 10% FBS. After 1 hour incubation cells were fixed, stained with methylene blue and quantified as described (Oliver et al., [1989]). Cell spreading was examined on cells plated on 100 mm polystyrene petri dishes coated with 2.5 ml of a 20 μg/ml solution of Cyr61, Fisp12 or fibronectin. 10^7 cells were plated on each dish and cell spreading was analyzed 90 minutes after plating by microscopy at 100× magnification.

[1] = system: 1064SK primary human foreskin fibroblasts; assay: Fibroblast adhesion assay (methylene blue, A620); type: cell-based
Experimental: The ability of Cyr61 to mediate cell adhesion in normal fibroblasts was investigated. Microtiter wells were coated with purified recombinant Cyr61 protein, and 1064SK primary human foreskin fibroblasts were allowed to adhere under serum-free conditions. […] 50 μl cell suspensions were plated on microtiter wells coated with varying concentrations (0.5-5.0 μg/ml) of Cyr61 protein. After incubation at 37° C. for 30 minutes, adherent cells were fixed and stained with methylene blue.
In another experiment, microtiter wells were coated with either BSA, Cyr61 (2 μg/ml), or vitronectin (VN; 0.5 μg/ml) and blocked with affinity-purified anti-Cyr61 antibodies for one hour at 37° C. before 1064SK cells were plated.
The effects of divalent cations in cell adhesion to Cyr61 was also investigated. […] Data are means from triplicate determinations. […] Inhibition by Ca^2+ is characteristic of adhesion through some members of the β1 family of integrins, including receptors that bind type I collagen, laminin, and vitronectin (integrins α2β1, α6β1, and αVβ1) in fibroblasts, as well as the lymphocyte-specific integrin αLβ2.
The effects of RGD peptides on Cyr61-mediated fibroblast binding was tested by plating cells in wells coated with Cyr61 (2 μg/ml). Type I collagen (2 μg/ml) or vitronectin (0.5 μg/ml), 2 mM GRGDSP or GRGESP peptide was then added.
Cells were also pre-incubated with 40 μg/ml monoclonal antibodies against the integrin α5 or the integrin αV subunits at room temperature for 30 minutes, then plated on wells coated with Cyr61 (2 μg/ml), vitronectin (0.5 μg/ml) or fibronectin (FN, 1 μg/ml). […] The data are means, representative of three experiments.
The 1064 SK cells were also analyzed using the monoclonal antibody JBIA, which binds the β1 integrin subunit. Cells were pre-incubated with the antibody (50 μg/ml) before plating on microtiter wells coated with Cyr61 (2 μg/ml), Type I collagen (2 μg/ml), or vitronectin (0.5 μg/ml). […] Data are means, representative of three experiments.
To identify the specific β1 integrin that mediates fibroblast adhesion to Cyr61, the inhibitory effects of function-blocking monoclonal antibodies were tested against various integrin α subunits. […] The data are means, representative of at least three experiments.

αllbβ3 = molecular target: T1, αllbβ3 (Homo sapiens, UniProt P05106+P08514); assay: Solid-phase binding assay with purified integrin
T1 construct: from tissue; host or cells: outdated human platelets
Experimental: In these experiments, activated and unactivated αllbβ3 were purified from platelet lysates. Activated αllbβ3 was purified by RGD affinity chromatography, as described (Knezevic et al., J. Biol. Chem. 271:16416-16421 [1996]). Briefly, outdated human platelets were isolated by differential centrifugation and solubilized in lysis buffer (10 mM HEPES, pH 7.4, 0.15 M NaCl, containing 1 mM CaCl2, 1 mM MgCl2 100 μM leupeptin, 1 mM phenylmethylsulfonyl fluoride, 10 mM-ethylmaleimide, and 50 mM octylglucoside). The octylglucoside extract was incubated with 1 ml GRGDSPK-coupled Sepharose 4B overnight at 4° C. After washing with 15 ml column buffer (same as lysis buffer except it contained 25 mM octylglucoside), bound αllbβ3 was eluted with 1.7 mM H12 (2 ml) in column buffer. The H12 eluate was applied to a Sephacryl S-300 High Resolution column (1.5×95 cm), and αllbβ3 was eluted with 10 mM HEPES, pH 7.4, 0.15 M NaCl, 1 mM CaCl2, 1 mM MgCl2 and 25 mM octylglucoside.
Unactivated αllbβ3 was isolated by the method of Fitzgerald et al., Anal. Biochem. 151:169-177 (1985), with slight modifications. The flow-through fraction of the GRGDSPK-Sepharose column was applied to a concanavalin A-Sepharose 4B column (1×20 cm). Unbound proteins were washed with 50 ml column buffer, and bound αllbβ3 was then eluted with 100 mM mannose dissolved in column buffer. Fractions containing αllbβ3 were further purified on a Sephacryl S-300 High Resolution column
To perform the solid-phase binding assay, purified αllbβ3 was added to wells coated with either Cyr61 or Fisp12 (mCTGF) in the presence or absence of inhibitors and binding was allowed to proceed for 3 hours at 37° C. Unbound receptor was removed and the wells wee washed twice with HEPES-Tyrode's Buffer. The binding of purified αllbβ3 to Cyr61 or Fisp12/mCTGF immobilized onto microtiter wells was detected with ^125I-mAb15.

αVβ3 integrin = molecular target: T2, αVβ3 integrin (Homo sapiens, UniProt P05106+P06756); assay: Integrin binding assay (ligand-receptor ELISA)
T2 construct: αVβ3 integrin purification from HUVE cell lysates was done as described in Pytela et al; endogenous in cells; host or cells: HUVE cells
T2 sequence (P06756 31-889 limits assumed): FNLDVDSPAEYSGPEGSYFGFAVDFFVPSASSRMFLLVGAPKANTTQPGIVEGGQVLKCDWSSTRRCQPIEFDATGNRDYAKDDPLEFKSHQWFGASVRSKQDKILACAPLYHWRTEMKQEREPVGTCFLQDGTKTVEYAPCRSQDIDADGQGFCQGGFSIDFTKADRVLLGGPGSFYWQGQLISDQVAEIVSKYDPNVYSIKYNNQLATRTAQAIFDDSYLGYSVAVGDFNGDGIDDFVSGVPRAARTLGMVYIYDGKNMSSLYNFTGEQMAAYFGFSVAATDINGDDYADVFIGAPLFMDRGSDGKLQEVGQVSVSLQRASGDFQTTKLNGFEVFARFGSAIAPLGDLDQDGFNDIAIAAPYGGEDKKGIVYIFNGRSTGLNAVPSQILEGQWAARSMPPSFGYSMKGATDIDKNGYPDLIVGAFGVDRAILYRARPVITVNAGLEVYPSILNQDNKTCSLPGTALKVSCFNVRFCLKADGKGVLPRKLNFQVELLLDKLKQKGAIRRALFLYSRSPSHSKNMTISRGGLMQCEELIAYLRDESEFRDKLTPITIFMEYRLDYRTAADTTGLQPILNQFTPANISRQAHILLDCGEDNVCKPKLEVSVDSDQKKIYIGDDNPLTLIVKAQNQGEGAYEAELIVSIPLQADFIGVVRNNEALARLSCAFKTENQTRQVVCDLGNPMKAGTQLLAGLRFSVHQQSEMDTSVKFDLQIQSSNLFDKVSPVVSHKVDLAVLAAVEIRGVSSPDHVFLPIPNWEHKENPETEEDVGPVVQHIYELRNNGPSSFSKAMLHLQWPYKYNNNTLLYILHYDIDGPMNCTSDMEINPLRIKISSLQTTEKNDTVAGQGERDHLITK
T2 sequence (P06756 891-1048 partner limits assumed): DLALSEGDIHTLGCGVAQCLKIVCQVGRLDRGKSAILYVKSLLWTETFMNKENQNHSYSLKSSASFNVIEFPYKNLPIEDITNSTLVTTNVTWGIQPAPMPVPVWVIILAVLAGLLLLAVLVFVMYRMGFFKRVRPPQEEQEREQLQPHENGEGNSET
T2 sequence (P05106 27-788): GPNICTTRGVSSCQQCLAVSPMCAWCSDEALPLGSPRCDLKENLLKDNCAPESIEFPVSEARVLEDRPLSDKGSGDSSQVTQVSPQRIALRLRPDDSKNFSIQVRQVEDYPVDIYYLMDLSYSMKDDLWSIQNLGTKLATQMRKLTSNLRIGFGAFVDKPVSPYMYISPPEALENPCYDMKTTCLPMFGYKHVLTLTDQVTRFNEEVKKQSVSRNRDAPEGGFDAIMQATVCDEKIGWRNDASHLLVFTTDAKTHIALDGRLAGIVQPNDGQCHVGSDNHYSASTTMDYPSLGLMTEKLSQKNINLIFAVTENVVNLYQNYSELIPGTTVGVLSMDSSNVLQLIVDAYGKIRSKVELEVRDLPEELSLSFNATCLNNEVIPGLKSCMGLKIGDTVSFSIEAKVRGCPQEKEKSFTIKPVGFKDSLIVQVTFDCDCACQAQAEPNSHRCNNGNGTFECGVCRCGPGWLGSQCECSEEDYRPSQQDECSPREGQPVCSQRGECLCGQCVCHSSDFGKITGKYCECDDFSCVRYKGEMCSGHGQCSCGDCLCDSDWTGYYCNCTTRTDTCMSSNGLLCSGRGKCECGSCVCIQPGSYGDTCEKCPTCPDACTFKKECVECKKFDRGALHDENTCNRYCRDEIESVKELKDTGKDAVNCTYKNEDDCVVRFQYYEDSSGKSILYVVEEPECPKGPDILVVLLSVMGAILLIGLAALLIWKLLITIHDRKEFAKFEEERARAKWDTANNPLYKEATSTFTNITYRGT
Experimental: αVβ3 integrin purification from HUVE cell lysates was done as described in Pytela et al., Meth. Enzynmol., 144:475-489 (1987). Briefly, 10^8 cells were lysed in 1 ml of PBS containing 1 mM CaCl2, 1 mM MgCl2, 0.5 mM PMSF and 100 mM octylglucoside. The lysate was passed four times through a 0.5 ml column containing RGDSPK Sepharose (prepared from the cyanogen bromide activated Sepharose CL 4B as described in Lam, S. C-T., J. Biol. Chem., 267:5649-5655 (1992). The column was washed with 10 ml of the lysis buffer and the bound protein was eluted with 2 ml of the same buffer containing 1 mM RGDS peptide at room temperature. The αVβ3 integrin was dialyzed against PBS containing 1 mM CaCl2, 1 mM MgCl2, 5 mM octylglucoside and 0.1 mM PMSF with three changes of the dialysis buffer to remove the RGDS peptide. The protein was stored in aliquots at −70° C. The purity of the integrin was determined by SDS-PAGE under non-reducing conditions, followed by silver staining.
The integrin binding assay was developed in accordance with the disclosures in Brooks et al., Cell 85:683-693 (1996), and Lam, S. C-T (1992). Approximately 50 ng of the integrin in a total volume of 50 μl were added per well of 96-well immunological Pro-Bind plates (Falcon) and incubated overnight at 4° C. Non-specific sites were blocked with 20 mg/ml BSA in the same buffer and washed four times in that buffer. Treated plates were incubated with 1 μg/ml Cyr61 or 0.1 μg/ml vitronectin for 3 hours at room temperature. […] The final dilution of the LM609 ascites fluid was 1:200. Bound proteins were detected by specific polyclonal antisera (anti-Cyr61 antiserum was diluted 1:500 and anti-vitronectin antiserum was diluted 1:1000 in PBS containing 1 mM CaCl2, 1 mM MgCl2, and 5 mg/ml BSA) followed by a secondary antibody-horseradish peroxidase conjugate (1:20000 in the same buffer). […] Horseradish peroxidase (HRP) was detected with an HRP immunoassay kit (Bio-Rad Laboratories). The colorimetric reaction was developed for 15-30 minutes at room temperature, stopped by the addition of H2SO4, and the absorbance at 450 nm was measured. […]

Limb mesenchymal cells [2] = conditions: 50 μg/ml (200 nM), literature; cited from earlier work
Limb mesenchymal cells [3] = assay: Limb bud mesenchymal cell attachment; type: cell-based, mouse; conditions: within 1 hour of plating
Experimental: Cyr61, fibronectin (Gibco), or tenascin (Gibco) were diluted in 0.1% protease-free bovine serum albumin (BSA) in PBS with 0.5 mM PMSF, to a final concentrations of 10 or 50 μg/ml. A 10 μl drop/well was placed in a non-tissue culture treated 24-well plate (Corning), and incubated at room temperature for 2 hours. The wells were blocked with 1% BSA in PBS for 1 hour at room temperature, and rinsed with serum-free MEM (Modified Eagle's Medium). Limb mesenchymal cells, suspended at 5×10^5 cell/ml in serum-free MEM, were added at a volume of 400 μl/well, and incubated at 37° C., 5% CO2 for 1 or 3 hours. At each time point, the cell suspension was removed, the wells were rinsed with MEM and the remaining adherent cells were photographed.

[4] = EDTA 5 mM, RGDS 0.5 mM, LM609 ascites 1:200

Compound | effect of agent on activated platelet adhesion to Cyr61 and Fisp12/mCTGF (platelets) | effect of agent on adhesion of ADP-activated platelets to fibrinogen (platelets) | effect of agent on activated αllbβ3 binding to Fisp12/mCTGF and Cyr61 (αllbβ3) | also measured
O=C(O)CN(CCN(CC(=O)O)CC(=O)O)CC(=O)O [EDTA, Ethylenediamine tetraacetic acid] | completely abolished platelet adhesion to both proteins | completely inhibited |  | effect of agent on Fisp12-mediated cell attachment (HUVE cells): inhibited; 1064SK adhesion to Cyr61-coated wells with agent ([1]; Cyr61 2 μg/ml, agent at the level stated in the block, Mg2+ 5.0 mM after EDTA): about 0.12 A620; 1064SK adhesion to Type I collagen-coated wells with agent ([1]; Type I collagen 2 μg/ml): 0.10 A620; 1064SK adhesion to vitronectin-coated wells with agent ([1]; vitronectin 0.5 μg/ml): 0.05 A620
H-HHLGGAKQAGDV-OH [H12] | inhibited platelet adhesion to Cyr61 and Fisp12/mCTGF | completely inhibited | effectively inhibited | 
RGDS |  | completely inhibited | specifically blocked | effect of agent on Cyr61 interaction with αVβ3 (αVβ3 integrin; [4]): inhibited; effect of agent on vitronectin interaction with αVβ3 (αVβ3 integrin; [4]): inhibited
echistatin | completely blocked platelet adhesion to both proteins | completely inhibited | effectively inhibited | 
tenascin: ECM protein (Gibco) |  |  |  | increase of chondrogenesis in micromass cultures (Limb mesenchymal cells [2]): 3 fold; attachment morphology of limb mesenchymal cells (Limb mesenchymal cells [3]): adhered as clusters of rounded cells
vitronectin: Human plasma vitronectin, serum spreading factor |  |  |  | binding to immobilized αVβ3 integrin (αVβ3 integrin; 1 μg/ml Cyr61 or 0.1 μg/ml vitronectin): bound to the immobilized integrin; inhibition by anti-α6 antibody of binding mediated by the coated protein ([1]; anti-α6 20 μg/ml): 9%
